Results: patent US11389415B2, “Methods of regulating cannabinoid receptor activity-related disorders and diseases” (The United States of America as represented by the …, priority 2012, dated 2022)

How the values were obtained:
1321N1 cells = settings: previously reported; read-out: Mitogenesis Inhibition in 1321N1 cells (IC50 nM)* (converted); cited from earlier work
HepG2 cells = assay: [3H]-Thymidine incorporation assay in HepG2 cells; assay type: cell-based, human
Procedure: Maintenance and Treatment of Cell Lines. Human HepG2 hepatocarcinoma cells and human U87MG glioma cells (ATCC, Manassas, Va.) were maintained in EMEM medium supplemented with 1% L-glutamine, 1% sodium pyruvate, 1% penicillin/streptomycin, and 10% FBS (Hyclone, Logan, Utah). The human 1321N1 astrocytoma cells (European Collection of Cell Cultures, Sigma-Aldrich) were cultured in Dulbecco's modified Eagle's medium supplemented with 10% FBS and penicillin/streptomycin. All cell lines were cultured at 37° C. in 5% CO2, and the medium was replaced every 2-3 days.
Cells were seeded in 12-well plates at approximately 50,000 cells/well and incubated at 37° C. After 24 hours, the wells were rinsed with PBS and replaced with serum-free medium containing the appropriate concentration of the test compounds. After another 24-hour incubation at 37° C., 1 μCi of [^3H]-thymidine was added to each well and incubated at 37° C. for 16 hours. [^3H]-Thymidine incorporation into DNA was monitored after the cells were washed twice with PBS and then lysed in 600 μL of 0.1N NaOH for 30 minutes with shaking. The lysate was then mixed with 3 mL of liquid scintillation cocktail (Beckman Coulter, Inc., Brea, Calif.), and radioactivity was measured by liquid scintillation counting using Beckman Coulter LS6000IC Scintillation Counter. Data are shown as CPM incorporated compared to the control cells.

HepG2 and PANC-1 cells = assay: Cell morphology and EGFR expression in HepG2 and PANC-1 cells; assay type: cell-based, human; settings: 5 μM, 16 hours
Procedure: FIGS. 26A-26C show MNF interferes with inducible changes in cell morphology and expression of EGFR. […] White arrows show individual cells with filopodia. FIG. 26C, Cell lysates were prepared from similar studies and immunoblotted for EGFR. The membranes were reprobed for Hsp90, which served as a loading control.
(§1) Western blot analysis. For detection of intracellular signaling proteins, cells were lysed in radioimmunoprecipitation buffer containing EGTA and EDTA (Boston BioProducts, Ashland, Mass.). The lysis buffer contained a protease inhibitor cocktail (Sigma-Aldrich) and phosphatase inhibitor cocktail (Calbiochem, San Diego, Calif.). Equivalent amount of proteins (14 and 54 μg/well for PANC-1 and HepG2 cells, respectively) were separated on 4 to 12% precast gels (Invitrogen, Carlsbad, Calif.) using SDS-polyacrylamide gel electrophoresis under reducing conditions and then electrophoretically transferred onto polyvinylidene fluoride membrane (Invitrogen). Western blots were performed according to standard methods, which involved blocking in 5% non-fat milk and incubated with the antibody of interest, followed by incubation with a secondary antibody conjugated with the enzyme horseradish perodixase. The detection of immunoreactive bands was performed by chemiluminescence using the ECL Plus Western Blotting Detection System (GE Healthcare, Piscataway, N.J.). The quantification of bands was done by volume densitometry by using ImageJ software. The rabbit polyclonal antibodies against EGFR were obtained from Cell Signaling Technology, Inc. (Beverly, Mass.) and the monoclonal anti-Hsp90 was purchased from Santa Cruz Biotechnology, Inc. (Santa Cruz, Calif.).

GPR55 [1] = molecular target: T1, GPR55 (Homo sapiens, UniProt Q9Y2T6); assay: Cellular uptake of TocriFluor T1117 in HepG2 cells; assay type: cell-based; set-up: host or cells: HepG2 hepatocarcinoma cells; settings: HepG2, 0.25 μM, 30 minutes pretreatment
T1 sequence (Q9Y2T6 whole entry): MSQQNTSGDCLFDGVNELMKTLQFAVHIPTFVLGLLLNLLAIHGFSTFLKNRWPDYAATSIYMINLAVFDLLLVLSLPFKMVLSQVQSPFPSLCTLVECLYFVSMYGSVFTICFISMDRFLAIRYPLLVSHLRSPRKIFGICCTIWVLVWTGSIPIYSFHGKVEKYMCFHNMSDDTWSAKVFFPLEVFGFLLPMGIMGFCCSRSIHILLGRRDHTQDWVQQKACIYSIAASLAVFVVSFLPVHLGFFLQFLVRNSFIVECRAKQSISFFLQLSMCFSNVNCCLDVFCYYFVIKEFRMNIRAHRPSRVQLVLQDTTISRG

ERK1/2 = ERK1/2 phosphorylation (GPR55 downstream signaling) in HepG2 cells; assay type: cell-based, human; settings: HepG2, 2.5 and 10 μM, 10 minutes
Procedure: as §1
Effect of MNF on O-1602-mediated increase in cell signaling. Serum-starved cells were pretreated in the absence or presence of 1 μM MNF for 10 minutes followed by a 10 minute incubation with 0, 2.5 and 10 μM O-1602 or 10% FBS, after which the levels of total ERK2 and phosphorylated forms of ERK1/2 (pErk1/2, Thr202/Tyr204), were determined by Western blotting technique. All primary antibodies were purchased from Cell Signaling Technology and used at a dilution recommended by the manufacturer.

GPR55 [2] = molecular target: T1, GPR55; assay: GPR55 internalization assay in hGPR55-HEK293 cells; assay type: cell-based; settings: HEK293 stably expressing HA-tagged GPR55, 5 μM, 20 minutes
Procedure: GPR55 internalization assay. Endocytosis of GPR55 was observed following a previously described protocol with minor modifications (Henstridge et al., Br. J. Pharmacol. 160: 604-614, 2010). Briefly, hGPR55-HEK293 cells were grown on Lab-Tek II CC2 chamber slides (Thermo Scientific Nunc, Rochester, N.Y.) for 48 hours in regular media and then were serum starved for 1 hour. A preincubation with 1:1000 rabbit HA antibody (Covance, Md.) was performed in the presence of vehicle (0.1% DMSO) or 1 μM MNF in serum-free media for 45 minutes at 37° C. in the CO2 incubator. Cells were then washed extensively with PBS and treated with 5 μM 01602 in serum-free media for 20 minutes at 37° C. in the CO2 incubator. Subsequently, cells were washed three times, fixed in fresh 3.7% paraformaldehyde in PBS (10 min), and incubated with anti-rabbit Alexa Fluor 488 antibody (Molecular Probes, Eugene, Oreg.; 1:1000, 30 minutes). Cells were washed and fixed for a second time prior to permeabilization with 0.2% Triton X-100 (5 minutes). Incubation with anti-rabbit Alexa Fluor 568 antibody (Molecular Probes; 1:1000, 30 minutes) was carried out to determine the extent of internalized GPR55-HA antibody complex. […]

Structure (SMILES) | IC50 (1321N1 cells) [nM] | % Change in HepG2 cells ([3H]-thymidine incorporation) (HepG2 cells; at 10 μM) | % Change in HepG2 cells ([3H]-thymidine incorporation) (HepG2 cells; 1 μM, 24 h) [%] | EGFR levels (HepG2 and PANC-1 cells) | reduction in the amount of T1117 incorporated (GPR55 [1]) [%] | delay in cellular accumulation of T1117 (GPR55 [1]; 10 nM T1117) [min] | ERK phosphorylation (ERK1/2) | GPR55 internalization (GPR55 [2])
CCC(Cc1ccc(O)cc1)NCC(O)c1cc(O)cc(O)c1 [(R,R′)-ethylFen, (R,R′)-ethylfenoterol] | 1.44 ± 0.27 | (R,R′): 50.90 at 10 μM % | – | – | – | – | – | –
C[C@@H](Cc1ccc(O)cc1)NC[C@@H](O)c1cc(O)cc(O)c1 [(S,S′)-Fen, fenoterol] | 184 | – | 9.7 | – | – | – | – | –
C=C(C)[C@@H]1CCC(C)=C[C@H]1c1c(C)cc(O)cc1O [O-1602, reference compound] | – | – | – | led to higher EGFR levels when compared to vehicle-treated cells | 47 | 12.5 | dose-dependently increased ERK phosphorylation | led to marked endocytosis of HA-tagged GPR55
